Reference: US7943576B2, “Methods of using enterostatin as inhibitor of angiogenesis” (priority 2005, dated 2011)
pKd: −log10 of the molar value. Entries after “also recorded” stand apart in the source; their conditions may differ. Where two headings read alike, the source gives them in different places.

Legend:
adipose tissue = test: in vitro human adipose tissue angiogenesis assay (fat fragments in fibrin clot); format: cell-based
Description: Tissue Preparation: Discarded fat from human surgery was cut into fragments approximately 1 mm thick and 2 mm in diameter. These fat fragments were placed in 96-well plates loaded with human thrombin solution (0.05 IU in 40 μL double distilled water/well). The fat fragments were placed in the prepared 96-well plates and covered with 100 μl clotting media. The clotting media consisted of fibrinogen (3 mg/ml) (Sigma Chemical Co., St. Louis, Mo.) and ε-amino caproic acid (0.5%) (Sigma Chemical Co., St. Louis, Mo.) in human placental vein angiogenesis model (HPVAM) media. […] The mixture was allowed to clot by incubation in 6% CO2, 94% air at 37° C. in a humidified incubator. After the media had gelled overnight, the fat-containing clot was supplemented with 1 mL HPVAM media containing 20% fetal bovine serum (GibcoBRL, Gaithersburg, Md.). The total volume of each well was 2 mL.
Angiogenic Evaluation: All wells were evaluated for angiogenic sprouting by examination at 40× and 200× magnification by an unbiased observer using an inverted microscope. Angiogenesis was defined by two criteria. First, the number of wells (as a percentage of the total plated) that developed new vessel growth was termed initiation. This was defined by the presence of at least three angiogenic sprouts of approximately 0.5 mm in length growing from the periphery of the fat tissue. The degree of angiogenic response was assessed using a semi-quantitative visual rating scale as described in E. A. Woltering et al., “Development of a novel in vitro human tissue-based angiogenesis assay to evaluate the effect of antiangiogenic drugs,” Ann. Surg., vol. […] The tissue was visually divided into four quadrants. Each quadrant was given a numeric score from 0-4 based on the length and density of the new vessel growth, and on the percentage of the quadrant's circumference involved with the angiogenic response. Numeric results from the four quadrants were summed and expressed as an angiogenic index (AI, 1-16). This rating scale has been validated using multiple independent observers as described in C. Hornick et al., “Inhibition of angiogenic initiation and disruption of newly established human vascular networks by juice of Morinda citrifola (Noni),” Angiogenesis, vol.

[1] = cited from earlier work; for duration of action on feeding: single injection
umbilical veins = test: human umbilical vein angiogenesis model; format: cell-based
From the text: In addition, another angiogenesis model was tried, the human umbilical vein model as described by Woltering et al. (61). This model uses discarded umbilical veins to assay the effect of various compounds on angiogenesis.

GT1-7 cells = test: microarray gene analysis, GT1-7 cells; format: cell-based; details: GT1-7 cells (counted together with HepG2); 60 minutes; 0.01, 0.1 and 1.0 uM; regulated by at least 1.7×
Description: (§1) HepG2 cells (a human liver carcinoma cell line) and GT1-7 cells (a neuronal cell line) were cultured by standard procedures and incubated with varying concentrations of enterostatin for 60 minutes. At the completion of the incubation period, cells were lysed, recovered from the plates, and extracted for RNA using TRI REAGENT® (Molecular Research Center, Inc, Cincinnati, Ohio). The RNA was then purified using the RNeasy® Mini Kit (Qiagen, Valencia, Calif.). RNA quality was visually assessed using agarose gel electrophoresis and quantified by UV spectrophotometric analysis (A260 and A280 nm). All RNA had A260/A280 ratios greater than 1.75 and less than 2.10. RNA integrity was checked using an RNA 6000 nano lab chip kit (Agilent Technologies, Foster City, Calif.). […]
(§2) Slides were scanned using a GSI Lumonics ScanArray 5000 laser scanner (Perkin Elmer Life Sciences, Inc., Boston, Mass.) at a relatively low and a relatively high laser intensity and expression data was analyzed using the QuantArray V3.0 software package (Perkin Elmer Life Sciences, Inc.). […]

[2] = occurring mainly into lymphatic system; cited from earlier work
galanin receptors = details: cited from earlier work
islet cells = details: cited from earlier work
[3] = target: T1, Neuropeptide Y1 receptors (Homo sapiens, UniProt P25929); details: cited from earlier work
T1 sequence (P25929 1-384): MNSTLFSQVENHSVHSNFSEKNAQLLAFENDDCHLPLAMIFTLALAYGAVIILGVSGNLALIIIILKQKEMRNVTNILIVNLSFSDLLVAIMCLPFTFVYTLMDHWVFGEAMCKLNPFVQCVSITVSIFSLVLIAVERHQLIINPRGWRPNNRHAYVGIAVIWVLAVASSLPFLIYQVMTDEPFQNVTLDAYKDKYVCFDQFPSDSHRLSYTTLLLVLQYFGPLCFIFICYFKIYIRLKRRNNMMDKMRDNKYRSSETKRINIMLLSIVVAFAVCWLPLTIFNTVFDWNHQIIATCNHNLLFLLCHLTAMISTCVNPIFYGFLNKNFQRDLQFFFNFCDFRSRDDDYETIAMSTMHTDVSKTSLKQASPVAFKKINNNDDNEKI

[4] = low affinity binding, brain membrane preparation; cited from earlier work
[5] = humans, intravenous injection; cited from earlier work
[6] = system: SK-N-MC neuroepithelioma cells; details: low affinity binding; cited from earlier work
HepG2 cells = test: microarray gene analysis, HepG2 cells; format: cell-based, human; details: HepG2 cells (counted together with GT1-7); 60 minutes; 0.01, 0.1 and 1.0 uM; regulated by at least 1.7×
Description: as §1, §2

kappa-opioid receptors = kappa-opioid receptors (Homo sapiens, UniProt P41145); details: cited from earlier work
[7] = target: beta subunit of ATP synthase (Homo sapiens, UniProt P06576); details: cited from earlier work
[8] = target: T2, cholecystokinin A receptors (Homo sapiens, UniProt P32238); details: cited from earlier work
T2 sequence (P32238 1-428): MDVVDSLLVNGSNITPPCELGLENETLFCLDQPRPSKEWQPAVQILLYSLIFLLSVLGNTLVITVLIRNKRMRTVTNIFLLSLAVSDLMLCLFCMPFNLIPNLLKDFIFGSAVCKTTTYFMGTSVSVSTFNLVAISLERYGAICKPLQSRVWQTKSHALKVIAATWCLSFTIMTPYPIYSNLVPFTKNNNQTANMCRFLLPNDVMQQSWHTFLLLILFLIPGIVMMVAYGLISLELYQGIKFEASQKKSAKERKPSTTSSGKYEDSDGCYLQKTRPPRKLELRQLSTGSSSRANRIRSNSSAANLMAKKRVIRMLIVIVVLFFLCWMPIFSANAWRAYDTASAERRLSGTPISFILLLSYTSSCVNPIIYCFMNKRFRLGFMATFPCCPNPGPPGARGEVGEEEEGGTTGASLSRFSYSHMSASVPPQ

[9] = rats adapted to three-choice macronutrient diet

beta subunit of ATP synthase, sequence (P06576 48-529): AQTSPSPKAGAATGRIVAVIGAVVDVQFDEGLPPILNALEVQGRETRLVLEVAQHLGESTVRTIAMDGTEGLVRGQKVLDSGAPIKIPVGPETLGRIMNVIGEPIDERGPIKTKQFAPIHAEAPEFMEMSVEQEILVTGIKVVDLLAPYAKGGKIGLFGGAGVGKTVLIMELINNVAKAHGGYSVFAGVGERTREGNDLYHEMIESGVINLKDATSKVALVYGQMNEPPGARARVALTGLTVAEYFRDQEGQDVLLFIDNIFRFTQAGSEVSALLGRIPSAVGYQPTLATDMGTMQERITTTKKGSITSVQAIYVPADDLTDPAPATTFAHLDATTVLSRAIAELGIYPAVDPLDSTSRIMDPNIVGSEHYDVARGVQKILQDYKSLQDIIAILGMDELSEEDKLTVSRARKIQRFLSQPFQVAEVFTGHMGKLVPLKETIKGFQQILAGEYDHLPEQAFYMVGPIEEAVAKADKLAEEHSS
kappa-opioid receptors, sequence (P41145 whole entry): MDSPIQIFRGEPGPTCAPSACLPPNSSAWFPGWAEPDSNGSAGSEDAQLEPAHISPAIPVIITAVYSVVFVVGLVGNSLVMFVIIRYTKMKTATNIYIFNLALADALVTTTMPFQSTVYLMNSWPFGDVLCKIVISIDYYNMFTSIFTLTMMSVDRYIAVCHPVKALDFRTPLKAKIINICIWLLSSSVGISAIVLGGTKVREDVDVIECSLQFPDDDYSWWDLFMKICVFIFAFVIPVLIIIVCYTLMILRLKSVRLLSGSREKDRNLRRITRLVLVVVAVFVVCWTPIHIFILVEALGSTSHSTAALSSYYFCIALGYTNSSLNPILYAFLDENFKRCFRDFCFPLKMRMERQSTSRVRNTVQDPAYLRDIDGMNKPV

**Q.** Which “inhibitory effect on the angiogenic index (FIG. 4 legend)” value (adipose tissue) does the source give for APGP-ornithine [reference compound] here?
**A.** The value was “lack of an inhibitory effect”.

**Q.** What about the “inhibition of angiogenesis (FIG. 4)” value (adipose tissue; concentrations from 10^−6 to 10^−9 M) of the same substance?
**A.** The value was “none of these concentrations of the metabolite inhibited angiogenesis”.

**Q.** And the “food intake in rats” value ([1]; rat, in vivo)?
**A.** The value was “shown to affect food intake in rats”.

**Q.** Which inhibition of angiogenesis (umbilical veins) does the source give for “enterostatin (VPDPR; printed: Val-Pro-Asp-Pro-Arg) [aminoterminal pentapeptide of procolipase released when procolipase is converted into colipase]” here?
**A.** The inhibition of angiogenesis was “effective in inhibiting angiogenesis”.

**Q.** What about the “number of genes related to the angiogenesis pathway upregulated or downregulated” value (GT1-7 cells) of the same substance?
**A.** Its value is 22 genes.

**Q.** And the “absorption across the intestine” value [2]?
**A.** The value was “limited and slow”.

**Q.** And the “binding to galanin receptors” value (galanin receptors)?
**A.** Its value is “not to bind”.

**Q.** What about the “insulin secretion from islets” value (islet cells; 10^−9 to 10^−5 M, 16.7 mM glucose, dose-dependent) of the same substance?
**A.** The value was “inhibited insulin secretion from islets”.

**Q.** And the “insulin secretion from isolated pancreatic islets” value (islet cells; doses of 10^−10 to 10^−6M)?
**A.** The value was “inhibit insulin secretion”.

**Q.** And the “concentration least inhibitory of angiogenesis as measured by the angiogenic index (FIG. 3)” value (adipose tissue)?
**A.** The value was 10^−10 M.

**Q.** And the “new blood vessels (photomicrograph, FIG. 1B vs control FIG. 1A)” value (adipose tissue; 10^−9 M enterostatin)?
**A.** Its value is “fewer new blood vessels than the control tissue”.

**Q.** What about the angiogenic response (adipose tissue; concentrations from about 10^−6 to about 10^−9 M) of the same substance?
**A.** Its angiogenic response is “effectively blocked the angiogenic response”.

**Q.** And the “concentration giving the greatest inhibition of angiogenic index (FIG. 2)” value (adipose tissue; day 15, U-shaped dose response curve)?
**A.** Its value is 10^−9 M.

**Q.** What about the “effect on the angiogenic index (FIG. 2)” value (adipose tissue; range of 10^−8 to 10^−6 M) of the same substance?
**A.** The value was “dose dependent inhibition”.

**Q.** What about the “daily intake of dietary fat” value ([1]; chronic icv administration from mini-osmotic pumps, single-choice HF or two-choice HF/LF diet) of the same substance?
**A.** Its value is “attenuated the daily intake of dietary fat”.

**Q.** What about the “carbohydrate or protein intake” value [1, 9] of the same substance?
**A.** Its value is “no effect on either carbohydrate or protein intake”.

**Q.** And the “intake of fat macronutrient” value [1, 9]?
**A.** The value was “reduced intake of the fat macronutrient”.

**Q.** And the “duration of action on feeding” value ([1]; rats adapted to a six-hour feeding schedule)?
**A.** Its value is “lasting up to six hours”.

**Q.** And the “duration of action on feeding” value ([1]; rats adapted to ad-libitum feeding)?
**A.** The value was “up to 24 hours”.

**Q.** And the “intake of HF vs LF diet” value ([1]; two-choice high-fat and low-fat diet paradigm)?
**A.** The value was “reduced only intake of the HF diet”.

**Q.** And the “binding to Neuropeptide Y1 receptors” value [3]?
**A.** Its value is “not to bind”.

**Q.** What about the pKd [4] of the same substance?
**A.** The pKd was 6.64.

**Q.** And the food intake [5]?
**A.** Its food intake is “not found to reduce food intake”.

**Q.** What about the “subjective feeling of hunger” value [5] of the same substance?
**A.** Its value is “reduce the subjective feeling of hunger”.

**Q.** And the pKd [6]?
**A.** Its pKd is 7.40.

**Q.** And the “number of genes related to the angiogenesis pathway upregulated or downregulated” value (HepG2 cells)?
**A.** Its value is 22 genes.

**Q.** And the “binding to kappa-opioid receptors” value (kappa-opioid receptors)?
**A.** The value was “not to bind”.

**Q.** And the “binding to purified beta subunit of ATP synthase” value [7]?
**A.** Its value is “bind to this purified protein; also recorded: binds to the beta subunit of ATP synthase”.

**Q.** What about the “binding to cholecystokinin A receptors” value [8] of the same substance?
**A.** Its value is “not to bind”.

**Q.** What does the source list for β-casomorphin1-7 [reference compound]?
**A.** inhibitory effect on the angiogenic index (FIG. 4 legend) (adipose tissue): lack of an inhibitory effect; effect on angiogenesis (FIG. 4) (adipose tissue; concentrations of 10^−6 and 10^−7 M): no effect on angiogenesis; binding to purified beta subunit of ATP synthase [7]: bind to this purified protein
